The text below walks through data of patent publication US20220096592A1, “PIC1 VARIANTS WITH IMPROVED SOLUBILITY AND METHODS OF USING THE SAME” (priority 2019, published 2022).

Entries after “also recorded” stand apart in the source; their conditions may differ.

Assay [1] relates to C3 activation on the platelet surface. The experiment in a line: iC3b ELISA of antibody-sensitized human platelets in normal human serum. The format is cell-based. As for the experimental part:
For experiments sensitizing platelets with human anti-platelet antibody, purified platelets were treated with 4% ITP sera for 15 minutes at 30° C. before adding 2% normal human complement sufficient sera and incubating for 30 minutes at 37° C. For samples containing PIC1, sera and PIC1 were pre-incubated for 5 minutes before combining with sensitized platelets. Samples were then spun and supernatant was removed for C5a analysis by ELISA. A C5a ELISA kit (R&D Systems) was used per manufacturer's instructions. The cells were washed once with GVBS^−− and once with water to lyse the platelets. The remaining cell pellet was treated with 25 mM methylamine for 1 hour at 37° C., spun, and the supernatant was analyzed for iC3b by ELISA. The ELISA for iC3b was performed as previously described, utilizing a goat anti-human C3 antibody (Complement Technology, Tyler, Tex.) for capture, a mouse anti-human iC3b antibody (Quidel, San Diego, Calif.) for probing, and a goat anti-mouse HRP (Sigma-Aldrich, St Louis, Mo.) for detection.
Human platelets were incubated with sensitizing antibody, NHS, or both. […] Complement attack of the platelets and cell viability were assayed. C3 is the central component of the complement activation cascades. The C3 fragment iC3b is an opsonin that contributes to phagocytosis. […]
In general terms: In an ELISA, binding on a coated surface is turned into a signal by an enzyme label.

Assay [2] has as its system Wistar rat sera complement-mediated killing of human platelets. As to the kind of experiment: viability of human platelets in Wistar rat sera (Presto Blue). Type of assay: cell-based. The settings on record: increasing concentrations, vs platelets in normal rat sera, P<0.017, FIG. 7C. As for the experimental part:
For experiments using rat sera, purified platelets were incubated with 5% Wistar rat sera at different time points (5 min, 20 min and 60 min) in a 37° C. bath. Thereafter, GVBS^−− was added to the mixture and this was spun at 500 g for 5 min at 22° C. After resuspending with 250 ul of PBS, PrestoBlue was added to the cells at a 1:10 dilution and incubated in a 37° C. water bath for 30 min. The cells were then plated and read on a microplate reader at 530 nm. With the addition of PIC1 to sera, there was a preincubation time of 5 minutes before addition of platelets.
In order to evaluate the extent to which rat sera killing of human platelets is mediated by the classical pathway of complement, we utilized PA-dPEG24.

The test system of assay [3] is complement-mediated hemolysis of the patient's erythrocytes. As to the kind of experiment: hemolytic complement assay with plasma and erythrocytes of a DHTR patient. The format is cell-based, human. To be noted: complement permissive buffer GVBS++, increasing concentrations, FIG. 13; listed as PIC1. The protocol: Discarded de-identified blood was obtained from routine medical management blood draws from the patient prior to treatment with eculizumab. […] Complement permissive GVBS^++ buffer is veronal-buffered saline with 0.1% gelatin, 0.15 mM CaCl2, and 1 mM MgCl2 [11]. Complement inhibitory buffer GVBS^−− is a veronal-buffered saline with 0.1% gelatin and 10 mM EDTA. Approximately 5×10^7 washed erythrocytes were incubated with 20% plasma in a reaction volume of 0.15 ml for 1 hour at 37° C.
Erythrocytes were sedimented by centrifugation at 1,500×g for 5 minutes and the supernatant was then recovered. The supernatant was measured on a Bio Tek Synergy HT plate reader spectrophotometer for absorption at 412 nm. Hemolysis was measured by quantitation of free hemoglobin on the spectrophotometer at 412 nm.

Turning to “H2N-IALILEPICCQERAA-dPEG24 (H-IALILEPICCQERAA-dPEG24; cysteine pairing not given here) [PA-dPEG24, 15-amino acid PEGylated peptide, 24 PEG moieties at the C-terminus]”, the “iC3b bound to platelets” value in assay [1] (0.8 mM) is on record as “level similar to that of the background level measured for sensitizing antibody alone”. Also, the “iC3b opsonization of platelets, dose response” value in assay [1] (sensitizing antibody and NHS, increasing concentrations, FIG. 6A) is listed as “decreased iC3b opsonization of the platelets in a dose-dependent manner”. Moreover, the “viability of human platelets in rat sera” value in assay [2] is “dose-dependent improvement in platelet viability; also recorded: improved survival for human platelets in rat sera for all doses tested compared to control”. In addition, the “hemolysis of patient erythrocytes by patient plasma” value in assay [3] is “statistically significant dose-dependent decrease of hemolysis; also recorded: inhibited hemolysis to the background signal; also recorded: completely blocked at higher doses”.
